The values below come from patent publication US20240158446A1, “CYCLIC COMPOUND HAVING SELECTIVE INHIBITORY ACTION ON KRAS OVER HRAS AND NRAS” (CHUGAI SEIYAKU KABUSHIKI KAISHA, priority 2021, published 2024).

Each structure is given as a SMILES string. Like-named read-outs stand apart in the source and are kept apart here.

For assay [1], the target named is GDP-bound HRAS wild-type protein (Homo sapiens, UniProt P01112). Briefly: Binding to HRAS by surface plasmon resonance (SPR), Single Cycle Kinetics. The following applies: for HRAS/KRAS (ratio of KD value for HRAS to KD value for KRAS): SPR, GDP-bound HRAS wild-type protein vs GDP-bound KRAS wild-type protein; for HRAS/KRAS (ratio of KD value with respect to GDP-bound HRAS wild-type protein to KD value with respect to KRAS): SPR KD ratio HRAS/KRAS, class symbols.

Assay [2] has as its target GDP-bound KRAS wild-type protein (Homo sapiens, UniProt P01116). The assay can be described thus: Binding to KRAS by surface plasmon resonance (SPR), Single Cycle Kinetics. The following applies: GDP-bound KRAS wild-type protein, read-out: KRAS KD. For orientation: In SPR one partner is held on a chip, and binding of the other changes the refractive index at the surface.

For assay [3], the system named is human lung cancer strain NCI-H441.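 Further: cell proliferation inhibition after four days measured by CellTiter-Glo.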
Assay [4] concerns the target GDP-bound NRAS wild-type protein (Homo sapiens, UniProt P01111). The assay can be described thus: Binding to NRAS by surface plasmon resonance (SPR), Single Cycle Kinetics. The settings on record: for NRAS/KRAS (ratio of KD value for NRAS to KD value for KRAS): SPR, GDP-bound NRAS wild-type protein vs GDP-bound KRAS wild-type protein; for NRAS/KRAS (ratio of KD value with respect to GDP-bound NRAS wild-type protein to KD value with respect to KRAS): SPR KD ratio NRAS/KRAS, class symbols.

Where [5] appears, read: SPR, Single Cycle Kinetics, 1:1 binding model.
Where [6] appears, read: SPR Single Cycle Kinetics, 1:1 binding model.

Sequence of GDP-bound KRAS wild-type protein (P01116 whole entry): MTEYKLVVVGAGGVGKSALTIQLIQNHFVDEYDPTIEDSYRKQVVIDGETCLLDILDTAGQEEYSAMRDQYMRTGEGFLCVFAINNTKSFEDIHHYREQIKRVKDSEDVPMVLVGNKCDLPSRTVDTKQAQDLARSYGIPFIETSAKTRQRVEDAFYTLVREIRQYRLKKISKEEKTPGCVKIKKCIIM
Sequence of GDP-bound HRAS wild-type protein (P01112 whole entry): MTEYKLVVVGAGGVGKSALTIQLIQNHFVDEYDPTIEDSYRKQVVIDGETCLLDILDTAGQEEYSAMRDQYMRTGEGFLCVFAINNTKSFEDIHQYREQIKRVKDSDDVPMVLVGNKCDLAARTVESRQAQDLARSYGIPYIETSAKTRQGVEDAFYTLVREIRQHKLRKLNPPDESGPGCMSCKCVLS
Sequence of GDP-bound NRAS wild-type protein (P01111 whole entry): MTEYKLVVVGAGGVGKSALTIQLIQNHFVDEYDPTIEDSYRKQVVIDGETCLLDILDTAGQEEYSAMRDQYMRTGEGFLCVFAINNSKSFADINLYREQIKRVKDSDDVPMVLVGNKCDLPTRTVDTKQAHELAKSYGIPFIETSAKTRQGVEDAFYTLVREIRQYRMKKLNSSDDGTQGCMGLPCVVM

On to `CCO[C@@H]1C[C@H]2C(=O)NC3(CCC3)C(=O)N(C)[C@@H](C3CCCC3)C(=O)N(C)[C@H](C(=O)N(C)C)CC(=O)N(C)[C@@H](C)C(=O)N[C@@H]([C@@H](C)CC)C(=O)N(C)CC(=O)N(C)[C@H]3CCCCCN(C3=O)[C@@H](Cc3ccc(F)cc3)C(=O)N(C)CC(=O)N[C@@H](CCc3cc(F)c(C(F)(F)F)c(F)c3)C(=O)N2C1` [PP1189], for which the “HRAS/KRAS (ratio of KD value for HRAS to KD value for KRAS)” value in assay [1] is “B (a compound having 3 or more and less than 10 is denoted as B)”. Also, in assay [2] (SPR, Single Cycle Kinetics), the Kd (as a rule, the constant that tells how readily two partners part at equilibrium) is 0.066 nM. In addition, the IC50 (commonly the concentration needed to halve the response being measured) in assay [3] turned out to be 16.1 nM. The “NRAS/KRAS (ratio of KD value for NRAS to KD value for KRAS)” value in assay [4] is “B (a compound having 3 or more and less than 10 is denoted as B)”.

Take `CCO[C@@H]1C[C@H]2C(=O)NC3(CC(C)(C)C3)C(=O)N(C)[C@@H](C3CCCC3)C(=O)N(C)[C@H](C(=O)N(C)C)CC(=O)N(C)[C@@H](CC(C)C)C(=O)N[C@@H]([C@@H](C)CC)C(=O)N(C)CC(=O)N(C)[C@H]3C/C=C\CCN(C3=O)[C@@H](Cc3ccc(C(F)(F)F)cc3)C(=O)N(C)CC(=O)N[C@@H](CCc3ccc(C(F)(F)F)c(OC)c3)C(=O)N2C1` [PP1562]: the “HRAS/KRAS (ratio of KD value for HRAS to KD value for KRAS)” value in assay [1] (KD ratio class) was “A (a compound having 10 or more and less than 20 is denoted as A)”. In assay [2] (setting [5]), the equilibrium dissociation constant (Kd) stood at 0.046 nM. Besides, it took 1.7 nM to reach half-maximal inhibition in assay [3] (IC50). Besides, in assay [4] (KD ratio class), the “NRAS/KRAS (ratio of KD value for NRAS to KD value for KRAS)” value is “A (a compound having 10 or more and less than 20 is denoted as A)”.

As for `CCC(CC)[C@H]1C(=O)N(C)[C@H](C(=O)N(C)C)CC(=O)N(C)[C@@H](COC)C(=O)N[C@@H]([C@@H](C)CC)C(=O)N(C)CC(=O)N(C)[C@H]2C/C=C\CCN(C2=O)[C@@H](Cc2ccc(C(F)(F)F)cc2)C(=O)N(C)CC(=O)N[C@@H](CCc2ccc(Cl)c(Cl)c2)C(=O)N2C[C@H](OC(C)C)C[C@H]2C(=O)NC2(CC(C)(C)C2)C(=O)N1C` [PP2533], the “HRAS/KRAS (ratio of KD value with respect to GDP-bound HRAS wild-type protein to KD value with respect to KRAS)” value in assay [1] was “A (a compound having 10 or more and less than 20 is denoted as A)”. Further, the Kd in assay [2] (setting [6]) amounted to 0.49 nM. This molecule came in with an IC50 in assay [3] of 20 nM. Besides, the “NRAS/KRAS (ratio of KD value with respect to GDP-bound NRAS wild-type protein to KD value with respect to KRAS)” value in assay [4] was “AA (a compound having 20 or more is denoted as AA)”.

Consider `CCO[C@@H]1C[C@H]2C(=O)NC3(CCC3)C(=O)N(C)[C@@H](C3CCCC3)C(=O)N(C)[C@H](C(=O)N3CCCCC3)CC(=O)N(C)[C@@H](CC(C)C)C(=O)N[C@@H]([C@@H](C)CC)C(=O)N(C)CC(=O)N(C)[C@H]3C/C=C\CCN(C3=O)[C@@H](Cc3ccc(C(F)(F)F)cc3)C(=O)N(C)CC(=O)N[C@@H](CCc3cc(F)c(C(F)(F)F)c(F)c3)C(=O)N2C1` [PP1290], for which, in assay [1] (KD ratio class), the “HRAS/KRAS (ratio of KD value for HRAS to KD value for KRAS)” value was “A (a compound having 10 or more and less than 20 is denoted as A)”. Also, in assay [2] (setting [5]), the Kd is 0.24 nM. Besides, the midpoint of inhibition in assay [3], the IC50, lay at 15.4 nM. For the same molecule, the “NRAS/KRAS (ratio of KD value for NRAS to KD value for KRAS)” value in assay [4] (KD ratio class) is listed as “AA (a compound having 20 or more is denoted as AA)”.

For the molecule `CC[C@H](C)[C@@H]1NC(=O)[C@H](CC2CCC2)N(C)C(=O)C[C@@H](C(=O)N(C)C)N(C)C(=O)[C@H](C2CCCC2)N(C)C(=O)C2(CCCC2)NC(=O)[C@@H]2CCCN2C(=O)[C@H](CCc2cc(F)c(C(F)(F)F)c(F)c2)NC(=O)CN(C)C(=O)[C@H](Cc2ccc(C(F)(F)F)cc2)N2C[C@H](C)CC[C@@H](C2=O)N(C)C(=O)CN(C)C1=O` [PP1386], the “HRAS/KRAS (ratio of KD value for HRAS to KD value for KRAS)” value in assay [1] (KD ratio class) is “B (a compound having 3 or more and less than 10 is denoted as B)”. Moreover, in assay [2] (setting [5]), the dissociation constant (Kd) worked out at 0.082 nM. Besides, the half-maximal inhibitory concentration (IC50) in assay [3] is 4.2 nM. In assay [4] (KD ratio class), the “NRAS/KRAS (ratio of KD value for NRAS to KD value for KRAS)” value is “B (a compound having 3 or more and less than 10 is denoted as B)”.

As for `CCO[C@@H]1C[C@H]2C(=O)NC3(CCC3)C(=O)N(C)[C@@H](C3CCCC3)C(=O)N(C)[C@H](C(=O)N3CCOCC3)CC(=O)N(C)[C@@H](CC)C(=O)N[C@@H]([C@@H](C)CC)C(=O)N(C)CC(=O)N(C)[C@H]3C[C@@H](C)[C@@H](C)CN(C3=O)[C@@H](Cc3ccc(C(F)(F)F)cc3)C(=O)N(C)CC(=O)N[C@@H](CCc3ccc(C(F)(F)F)c(Cl)c3)C(=O)N2C1` [PP1360], the “HRAS/KRAS (ratio of KD value for HRAS to KD value for KRAS)” value in assay [1] (KD ratio class) was “B (a compound having 3 or more and less than 10 is denoted as B)”. For the same molecule, the Kd in assay [2] (setting [5]) is 0.055 nM. The same molecule displayed a half-maximal inhibitory concentration (IC50) in assay [3] of 4.9 nM. Further, in assay [4] (KD ratio class), the “NRAS/KRAS (ratio of KD value for NRAS to KD value for KRAS)” value was “A (a compound having 10 or more and less than 20 is denoted as A)”.

`CC[C@H](C)[C@@H]1NC(=O)[C@H](COC)N(C)C(=O)C[C@@H](C(=O)N(C)C)N(C)C(=O)[C@H](C2CCCCC2)N(C)C(=O)C2(CC(C)(C)C2)NC(=O)[C@@H]2C[C@@H](OC3CCCC3)CN2C(=O)[C@H](CCc2cc(F)c(C(F)(F)F)c(F)c2)NC(=O)CN(C)C(=O)[C@H](Cc2ccc(C(F)(F)F)cc2)N2CC/C=C\C[C@@H](C2=O)N(C)C(=O)CN(C)C1=O` [PP2656]: the “HRAS/KRAS (ratio of KD value with respect to GDP-bound HRAS wild-type protein to KD value with respect to KRAS)” value in assay [1] is “B (a compound having 3 or more and less than 10 is denoted as B)”. In addition, the equilibrium dissociation constant (Kd) in assay [2] (setting [6]) was determined as 0.31 nM. Half-maximal inhibition in assay [3] (IC50) required 22.5 nM. Further, the “NRAS/KRAS (ratio of KD value with respect to GDP-bound NRAS wild-type protein to KD value with respect to KRAS)” value in assay [4] is “A (a compound having 10 or more and less than 20 is denoted as A)”.

Turning to `CCOC[C@H]1C(=O)N[C@@H]([C@@H](C)CC)C(=O)N(C2CC2)CC(=O)N(C)[C@@H]2C/C=C\CCN(C2=O)[C@@H](Cc2ccc(C)cc2)C(=O)N(C)CC(=O)N[C@@H](CCc2ccc(C(F)(F)F)c(OC)c2)C(=O)N2C[C@H](OCC)C[C@@H]2C(=O)NC2(CC(C)(C)C2)C(=O)N(C)[C@H](CC2CCC2)C(=O)N(C)[C@H](C(=O)N(C)C)CC(=O)N1C` (stereo in doubt) [PP2760], the “HRAS/KRAS (ratio of KD value with respect to GDP-bound HRAS wild-type protein to KD value with respect to KRAS)” value in assay [1] is “B (a compound having 3 or more and less than 10 is denoted as B)”. The dissociation constant Kd in assay [2] (setting [6]) stood at 4.8 nM. This molecule also registered an IC50 in assay [3] of 144 nM. Besides, the “NRAS/KRAS (ratio of KD value with respect to GDP-bound NRAS wild-type protein to KD value with respect to KRAS)” value in assay [4] was “A (a compound having 10 or more and less than 20 is denoted as A)”.

For `CC[C@H](C)[C@@H]1NC(=O)[C@H](COC)N(C)C(=O)C[C@@H](C(=O)N(C)C)N(C)C(=O)[C@H](C2CCCC2)N(C)C(=O)C2(CC(C)(C)C2)NC(=O)[C@@H]2C[C@H](C)CN2C(=O)[C@H](CCc2ccc(C(F)(F)F)c(OC)c2)NC(=O)CN(C)C(=O)[C@H](Cc2ccc(C)cc2)N2CC/C=C\C[C@@H](C2=O)N(C)C(=O)[C@@H]2C[C@H](OC)CN2C1=O` [PP2390], the “HRAS/KRAS (ratio of KD value for HRAS to KD value for KRAS)” value in assay [1] is “B (a compound having 3 or more and less than 10 is denoted as B)”. Moreover, the Kd in assay [2] (SPR, Single Cycle Kinetics) worked out at 0.28 nM. In assay [3], this molecule displayed a half-inhibitory concentration (IC50) of 96.7 nM. Moreover, the “NRAS/KRAS (ratio of KD value for NRAS to KD value for KRAS)” value in assay [4] is “A (a compound having 10 or more and less than 20 is denoted as A)”.

`CCC[C@H]1C(=O)N[C@@H]([C@@H](C)CC)C(=O)N2CCC[C@H]2C(=O)N(C)[C@H]2C/C=C\CCN(C2=O)[C@@H](CC2CCC(F)(F)CC2)C(=O)N(C)CC(=O)N[C@@H](CCc2ccc(C(F)(F)F)c(OC)c2)C(=O)N2C[C@H](OCC)C[C@H]2C(=O)N(C)C2(CCC2)C(=O)N(C)[C@@H](C2CCCC2)C(=O)N(C)[C@H](C(=O)N(C)C)CC(=O)N1C` [PP2356]: the “HRAS/KRAS (ratio of KD value for HRAS to KD value for KRAS)” value in assay [1] is “A (a compound having 10 or more and less than 20 is denoted as A)”. The dissociation constant (Kd) in assay [2] (SPR, Single Cycle Kinetics) was 0.94 nM. In addition, in assay [3], the IC50 stood at 14.7 nM. For the same molecule, in assay [4], the “NRAS/KRAS (ratio of KD value for NRAS to KD value for KRAS)” value was “A (a compound having 10 or more and less than 20 is denoted as A)”.
